{
  "source": "patent US20070270403A1",
  "about": "(priority 2003, published 2007)",
  "key": {"[1]": {"conditions": "independent of the rate of metabolism; cited from earlier work"}, "DA release in NAcc": {"tested_on": "DA release in NAcc", "experiment": "In vivo microvoltammetry, DA release in NAcc (clozapine studies)", "set-up": "species or system Sprague-Dawley Rattus Norvegicus", "conditions": "Acute, clozapine 20 mg/kg i.p. + cocaine 10 mg/kg i.p.", "experimental": "(§1) There is an increasing awareness that a psychosis, similar to that of schizophrenic psychosis, can be derived from cocaine addiction. […] Release mechanisms for monoamines, were determined by using a depolarization blocker, gamma-butyrolactone (γBL). […] Acute and Subacute studies were performed for each treatment group.\n(§2) The stereotaxic equipment was purchased from David Kopf Instruments, Tujunga, Calif. A Ag/AgCl reference electrode was placed in contact with dura, 7 mm anteriorally and contralaterally to the indicator microelectrode. A stainless steel auxiliary microelectrode was placed in contact with dura. BRODERICK PROBE® microelectrodes were manufactured on site.\n(§3) In vivo microvoltammetric studies on conscious Sprague-Dawley laboratory rats were begun nine to fifteen days after the aseptic surgical operations were performed. On each experimental day, the animal was placed in a Plexiglas-copper faradaic chamber. The three-microelectrode assembly, enclosed within the animal's prosthetic acrylic cap, was connected to a CV37 detector by means of a mercury commutator (Br. Res. Instr., Princeton, N.J.), a flexible cable, and a mating connector (BJM Electronics, Staten Island, N.Y.). The CV37 detector was electrically connected to a Minigard surge suppresser (Jefferson Electric, Magnetek, N.Y.) which was then connected to an electrical ground in isolation. […] Each animal was used as its own control. Changes in synaptic concentrations of DA and 5-HT are presented as percent change (% of control) in order to minimize normal between-animal variations. […] In vivo microvoltammetric scans were recorded in sec and repeated every five min for a period of 2 hrs before each treatment and a period of two hrs after each treatment.\n(§4) Potentials were applied with a CV37 detector (BAS, West Lafayette, Ind.). Potentials were applied from −0.2V to +0.4V with respect to a Ag/AgCl (1M NaCl) electrode, at a scan rate of 10 mV/sec at time constants of 5 and 1 tau. One scan was completed in 60 sec. Non-faradaic charging current was eliminated in the first 25 sec.\n(§5) Calibration curves were determined experimentally, in vitro, in a freshly prepared deoxygenated physiological saline-phosphate buffer solution (0.01 M, pH=7.4). We use ultra pure Nitrogen (N2) (T. W. Smith Corp., Bklyn, N.Y.) to deoxygenate the buffer solution. […] Calibration studies were also performed in freshly prepared deoxygenated buffer solutions containing phosphotidylethanolamine (PEA), combined with bovine serum albumin (BSA) (Sigma Aldrich, St. Louis, Mo.), a solution which closely mimics brain constituents. […] Detection limits for basal synaptic concentrations of DA and 5-HT in NAcc were 12 nM and 2 nM respectively."}, "5-HT release in NAcc": {"tested_on": "5-HT release in NAcc", "experiment": "In vivo microvoltammetry, 5-HT release in NAcc (clozapine studies)", "set-up": "species or system Sprague-Dawley Rattus Norvegicus", "conditions": "Acute, clozapine 20 mg/kg i.p. + cocaine 10 mg/kg i.p.", "experimental": "as §1, §2, §3, §4, §5"}, "[2]": {"tested_on": "Sprague-Dawley laboratory rats", "experiment": "Locomotor activity (ambulations) by infrared photobeams (clozapine studies)", "type": "in vivo, Sprague-Dawley Rattus Norvegicus", "conditions": "Acute, clozapine 20 mg/kg i.p. + cocaine 10 mg/kg i.p.", "excerpt": "Locomotor activity (ambulation) was monitored with infrared photobeams at the same time as DA and 5-HT release in NAcc was detected with BRODERICK PROBES® in conjunction with In Vivo Microvoltammetry. The chamber was faradaic, covered with copper to refract possible electrical artifacts (dimensions: 24 in (width) by 18 in (depth) by 23.5 in (height)). A 16 by 16 array of these infrared photobeams, were held in place by an aluminum frame which was situated ¾ in above the Plexiglas floor of the chamber to detect locomotor activity. Photobeams were sampled by a Pentium computer to define the x-y position of the animal within a 1.5 in resolution every 100 msec. When an x-y position was calculated, it was used to define the frequency of locomotor activity in counts. The locomotor activity system is a modified version of an Activity Pattern Monitor (APM) (San Diego Instruments, San Diego, Calif.). Behavioral data is presented in absolute frequency, i.e., number of counts recorded.\nThe first hr pre-drug allowed exploratory behavior. Exploratory behavior is defined as open-field behavior of ambulations (forward locomotion) wherein animals respond to the stimuli of a novel environment with high frequency of behavioral counts. The second hr pre-drug allowed the animal to become habituated before treatment.\nIn the Acute studies, each drug was administered at the end of the habituation period. Baseline (control) values were taken every five min for the last thirty min of the habituation period at which time drug injection(s) took place. Electrochemical recordings for DA and 5-HT release in NAcc, were continued for two hrs; at the same time, locomotor behavior continued to be monitored and recorded with infrared photobeams. At the end of the 2 hr drug(s) study, animals were then placed back in their home cages.\nIn the Subacute studies, which took place twenty-four hrs later, the animals were again placed in the faradaic behavioral chamber and no further drug was administered. Recordings of separate electrochemical signals for DA and 5-HT release in NAcc, were taken for one hr; at the same time, locomotor behavior was monitored and recorded with infrared photobeams.\nNeurochemical and behavioral data, derived from the last thirty minutes of the habituation period, provided the baseline data. […] Where appropriate, data points in the time course were subjected to 95% Confidence Limits (C.L.)."}, "[3]": {"conditions": "cited from earlier work"}, "[4]": {"conditions": "cited from earlier work", "remark": "listed apart in the source"}},
  "note": "Read-outs that look alike come from different tables or passages of the source.",
  "data": [
    {"smiles": "Cc1nc2n(c(=O)c1CCN1CCC(c3noc4cc(F)ccc34)CC1)CCCC2O", "note": "(centres unmarked) [9-hydroxyrisperidone]", "values": [
      {"measurement": "Time for which the metabolite is active", "setting": "[1]", "value": 22, "unit": "h"}
    ]},
    {"smiles": "CN1CCN(C2=Nc3cc(Cl)ccc3Nc3ccccc32)CC1", "note": "[Clozapine, clozapine]", "values": [
      {"measurement": "Average reduction of cocaine-induced increases in DA release in NAcc", "setting": "DA release in NAcc; first hr of study", "value": 40, "unit": "%"},
      {"measurement": "Average reduction of cocaine-induced increases in DA release in NAcc", "setting": "DA release in NAcc; second hr of study", "value": 50, "unit": "%"},
      {"measurement": "Average reduction of cocaine-induced increases in 5-HT release in NAcc", "setting": "5-HT release in NAcc; first hr of study", "value": 138, "unit": "%"},
      {"measurement": "Average reduction of cocaine-induced increases in 5-HT release in NAcc", "setting": "5-HT release in NAcc; second hr of study", "value": 113, "unit": "%"},
      {"measurement": "Average reduction of locomotor activity (ambulation counts) produced by cocaine", "setting": "[2]; first half hr", "value": 500, "unit": "counts"},
      {"measurement": "Average reduction of locomotor activity (ambulation counts) produced by cocaine", "setting": "[2]; next hr of study", "value": 150, "unit": "counts"},
      {"measurement": "half-life", "setting": "[3]; at higher doses", "value": "4 to 66", "unit": "h"},
      {"measurement": "half-life", "setting": "[3]; at lower doses", "value": 8, "unit": "h"}
    ]},
    {"smiles": "CN1[C@H]2CC[C@@H]1[C@@H](C(=O)O)[C@@H](OC(=O)c1ccccc1)C2", "note": "[benzoylecgonine]", "values": [
      {"measurement": "elimination half-life", "setting": "[4]; after bolus injections (e.g., 14.7 umol/kg)", "value": "40 to 44", "unit": "min"}
    ]},
    {"smiles": "COC(=O)[C@H]1[C@@H](OC(=O)c2ccccc2)C[C@@H]2CC[C@H]1N2", "note": "[norcocaine]", "values": [
      {"measurement": "Detection in brain", "setting": "[4]; after i.v. cocaine (20-40 mg/kg)", "value": "not detected at all"}
    ]}
  ]
}
